Measured values taken from ChEMBL document CHEMBL3638931, “Histone deacetylase inhibitors, process for preparation and uses thereof” (2014).

Target: T1, Protein deacetylase HDAC6 (Homo sapiens, UniProt Q9UBN7)
T1 sequence (Q9UBN7 whole entry): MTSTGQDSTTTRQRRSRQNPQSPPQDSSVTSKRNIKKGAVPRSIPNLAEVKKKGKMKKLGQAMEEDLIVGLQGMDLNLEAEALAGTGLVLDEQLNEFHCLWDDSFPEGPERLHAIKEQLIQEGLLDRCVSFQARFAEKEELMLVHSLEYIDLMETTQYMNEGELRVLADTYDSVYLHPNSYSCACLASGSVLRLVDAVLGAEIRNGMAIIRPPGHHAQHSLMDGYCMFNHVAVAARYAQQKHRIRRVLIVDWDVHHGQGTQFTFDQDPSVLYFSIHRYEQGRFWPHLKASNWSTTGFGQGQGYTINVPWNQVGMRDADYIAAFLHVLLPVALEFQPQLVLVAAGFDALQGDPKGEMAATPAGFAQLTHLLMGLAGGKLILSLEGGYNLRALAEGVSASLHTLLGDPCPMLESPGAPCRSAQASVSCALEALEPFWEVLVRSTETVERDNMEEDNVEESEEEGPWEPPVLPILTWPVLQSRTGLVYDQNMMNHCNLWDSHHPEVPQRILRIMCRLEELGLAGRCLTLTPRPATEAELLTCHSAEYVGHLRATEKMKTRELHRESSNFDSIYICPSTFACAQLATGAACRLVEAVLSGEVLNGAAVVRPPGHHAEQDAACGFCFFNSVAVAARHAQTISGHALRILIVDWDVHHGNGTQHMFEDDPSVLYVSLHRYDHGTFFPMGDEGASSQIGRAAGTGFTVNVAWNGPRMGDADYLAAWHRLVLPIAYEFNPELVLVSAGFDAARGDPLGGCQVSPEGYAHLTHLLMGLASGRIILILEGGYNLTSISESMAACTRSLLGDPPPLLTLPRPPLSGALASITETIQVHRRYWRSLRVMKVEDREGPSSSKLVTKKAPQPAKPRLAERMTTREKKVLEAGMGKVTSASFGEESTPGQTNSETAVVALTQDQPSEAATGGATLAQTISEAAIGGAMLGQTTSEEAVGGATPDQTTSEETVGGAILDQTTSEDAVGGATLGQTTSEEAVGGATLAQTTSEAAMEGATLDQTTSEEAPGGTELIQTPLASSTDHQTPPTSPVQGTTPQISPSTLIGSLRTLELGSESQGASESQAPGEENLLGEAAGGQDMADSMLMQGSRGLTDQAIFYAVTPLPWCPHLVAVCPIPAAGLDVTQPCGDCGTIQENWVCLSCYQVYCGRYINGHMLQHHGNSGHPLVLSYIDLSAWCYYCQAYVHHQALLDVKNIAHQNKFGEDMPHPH
Assay: BIOMOL Fluorescent-Based HDAC Assay: The BIOMOL fluorescent-based HDAC activity assay has been applied in In vitro HDACi assay for determination of IC50 values of the compounds of this invention. The assay has been carried out in white 96 well formats according to the BIOMOL's method. In order to optimize the experiment conditions and optinal, the exact concentration range of the Deacetylated Standard (biomol, KI-142) that will vary depending on the flurimeter model, the gain setting and the exact excitation and emission wavelengths used. We recommend diluting some of the standard to a relatively low concentration with Assay Buffer (an appropriate series of Deacetylated Standard dilutions from 20 uM to 0.3125 uM), and Assay Buffer as a time zero to a set of wells on the microtiter plate. Experimental to samples (five dilute groups: 100 uM, 20 uM, 4 uM, 0.8 uM, 0.16 uM) should be compared to a time zero.

Row | SMILES | IC50
1 | CCN(CC)CCSc1ccc(/C=C/C(=O)NO)cc1NC(=O)C(Cl)Cl | 313 nM
2 | CCN(CC)CCSc1ccc(/C=C/C(=O)NO)cc1NS(=O)(=O)c1ccc(C)cc1 | 247 nM
